Results reported in ChEMBL document CHEMBL3046843, “Synthesis and investigation of anti-inflammatory activity of novel nitric oxide donating hybrid drugs” (Med Chem Res, 2013).

Assays:
[1] = test system: Rattus norvegicus; assay: Ulcerogenic activity in fasted albino Rattus norvegicus (rat) assessed as stomach mucosal injury at 14 mg/kg, po administered QD for 3 days measured on day 4 by electron microscopic analysis; type: toxicity, organism-based; parameters: dose 14 mg/kg, route oral; settings: in vivo, 72 h
[2] = test system: Rattus norvegicus; assay: Anti-inflammatory activity in Rattus norvegicus (rat) assessed as inhibition of carrageenan-induced paw edema at 14 mg/kg, po administered at 1 hr prior to carrageenan-challenge measured after 4 hr relative to control; type: functional
[3] = Induction of nitric oxide release in phosphate buffer at 10^-4 M after 1 hr at pH 7.4 by Griess method in presence of L-cysteine relative to control; type: physicochemical; settings: pH 7.4, 1 h, 100 µM
[4] = test system: Mus musculus; assay: Analgesic activity in Mus musculus (mouse) assessed as inhibition of acetic acid-induced writhing at 14 mg/kg, po measured after 25 min relative to control; type: functional
[5] = test system: Rattus norvegicus; assay: Anti-inflammatory activity in Rattus norvegicus (rat) assessed as inhibition of carrageenan-induced paw edema at 14 mg/kg, po administered at 1 hr prior to carrageenan-challenge measured after 3 hr relative to control; type: functional
[6] = test system: Rattus norvegicus; assay: Anti-inflammatory activity in Rattus norvegicus (rat) assessed as inhibition of carrageenan-induced paw edema at 14 mg/kg, po administered at 1 hr prior to carrageenan-challenge measured after 2 hr relative to control; type: functional
[7] = test system: Rattus norvegicus; assay: Anti-inflammatory activity in Rattus norvegicus (rat) assessed as inhibition of carrageenan-induced paw edema at 14 mg/kg, po administered at 1 hr prior to carrageenan-challenge measured after 1 hr relative to control; type: functional
[8] = test system: Rattus norvegicus; assay: Ulcerogenic activity in fasted albino Rattus norvegicus (rat) at 14 mg/kg, po administered QD for 3 days measured on day 4; type: toxicity, organism-based; parameters: dose 14 mg/kg, route oral; settings: in vivo, 72 h
[9] = test system: Rattus norvegicus; assay: Ulcerogenic activity in fasted albino Rattus norvegicus (rat) at 13 mg/kg, po administered QD for 3 days measured on day 4; type: toxicity, organism-based; parameters: dose 13 mg/kg, route oral; settings: in vivo, 72 h
[10] = test system: Rattus norvegicus; assay: Anti-inflammatory activity in Rattus norvegicus (rat) assessed as inhibition of carrageenan-induced paw edema at 13 mg/kg, po administered at 1 hr prior to carrageenan-challenge measured after 3 hr relative to control; type: functional
[11] = test system: Mus musculus; assay: Analgesic activity in Mus musculus (mouse) assessed as inhibition of acetic acid-induced writhing at 13 mg/kg, po measured after 25 min relative to control; type: functional
[12] = test system: Rattus norvegicus; assay: Ulcerogenic activity in fasted albino Rattus norvegicus (rat) assessed as stomach mucosal injury at 13 mg/kg, po administered QD for 3 days measured on day 4 by electron microscopic analysis; type: toxicity, organism-based; parameters: dose 13 mg/kg, route oral; settings: in vivo, 72 h
[13] = test system: Rattus norvegicus; assay: Anti-inflammatory activity in Rattus norvegicus (rat) assessed as inhibition of carrageenan-induced paw edema at 13 mg/kg, po administered at 1 hr prior to carrageenan-challenge measured after 2 hr relative to control; type: functional
[14] = test system: Rattus norvegicus; assay: Anti-inflammatory activity in Rattus norvegicus (rat) assessed as inhibition of carrageenan-induced paw edema at 13 mg/kg, po administered at 1 hr prior to carrageenan-challenge measured after 4 hr relative to control; type: functional
[15] = test system: Rattus norvegicus; assay: Anti-inflammatory activity in Rattus norvegicus (rat) assessed as inhibition of carrageenan-induced paw edema at 13 mg/kg, po administered at 1 hr prior to carrageenan-challenge measured after 1 hr relative to control; type: functional
[16] = test system: Rattus norvegicus; assay: Ulcerogenic activity in fasted albino Rattus norvegicus (rat) at 10 mg/kg, po administered QD for 3 days measured on day 4; type: toxicity, organism-based; parameters: dose 10 mg/kg, route oral; settings: in vivo, 72 h
[17] = test system: Rattus norvegicus; assay: Anti-inflammatory activity in Rattus norvegicus (rat) assessed as inhibition of carrageenan-induced paw edema at 10 mg/kg, po administered at 1 hr prior to carrageenan-challenge measured after 1 hr relative to control; type: functional
[18] = test system: Rattus norvegicus; assay: Anti-inflammatory activity in Rattus norvegicus (rat) assessed as inhibition of carrageenan-induced paw edema at 10 mg/kg, po administered at 1 hr prior to carrageenan-challenge measured after 4 hr relative to control; type: functional
[19] = test system: Rattus norvegicus; assay: Anti-inflammatory activity in Rattus norvegicus (rat) assessed as inhibition of carrageenan-induced paw edema at 10 mg/kg, po administered at 1 hr prior to carrageenan-challenge measured after 2 hr relative to control; type: functional
[20] = test system: Rattus norvegicus; assay: Anti-inflammatory activity in Rattus norvegicus (rat) assessed as inhibition of carrageenan-induced paw edema at 10 mg/kg, po administered at 1 hr prior to carrageenan-challenge measured after 3 hr relative to control; type: functional
[21] = test system: Mus musculus; assay: Analgesic activity in Mus musculus (mouse) assessed as inhibition of acetic acid-induced writhing at 10 mg/kg, po measured after 25 min relative to control; type: functional
[22] = test system: Rattus norvegicus; assay: Anti-inflammatory activity in Rattus norvegicus (rat) assessed as inhibition of carrageenan-induced paw edema at 12 mg/kg, po administered at 1 hr prior to carrageenan-challenge measured after 1 hr relative to control; type: functional
[23] = test system: Rattus norvegicus; assay: Ulcerogenic activity in fasted albino Rattus norvegicus (rat) at 12 mg/kg, po administered QD for 3 days measured on day 4; type: toxicity, organism-based; parameters: dose 12 mg/kg, route oral; settings: in vivo, 72 h
[24] = test system: Mus musculus; assay: Analgesic activity in Mus musculus (mouse) assessed as inhibition of acetic acid-induced writhing at 12 mg/kg, po measured after 25 min relative to control; type: functional
[25] = test system: Rattus norvegicus; assay: Anti-inflammatory activity in Rattus norvegicus (rat) assessed as inhibition of carrageenan-induced paw edema at 12 mg/kg, po administered at 1 hr prior to carrageenan-challenge measured after 2 hr relative to control; type: functional
[26] = test system: Rattus norvegicus; assay: Anti-inflammatory activity in Rattus norvegicus (rat) assessed as inhibition of carrageenan-induced paw edema at 12 mg/kg, po administered at 1 hr prior to carrageenan-challenge measured after 4 hr relative to control; type: functional
[27] = test system: Rattus norvegicus; assay: Anti-inflammatory activity in Rattus norvegicus (rat) assessed as inhibition of carrageenan-induced paw edema at 12 mg/kg, po administered at 1 hr prior to carrageenan-challenge measured after 3 hr relative to control; type: functional
[28] = test system: Rattus norvegicus; assay: Anti-inflammatory activity in Rattus norvegicus (rat) assessed as inhibition of carrageenan-induced paw edema at 20 mg/kg, po administered at 1 hr prior to carrageenan-challenge measured after 4 hr relative to control; type: functional
[29] = test system: Rattus norvegicus; assay: Anti-inflammatory activity in Rattus norvegicus (rat) assessed as inhibition of carrageenan-induced paw edema at 20 mg/kg, po administered at 1 hr prior to carrageenan-challenge measured after 1 hr relative to control; type: functional
[30] = test system: Mus musculus; assay: Analgesic activity in Mus musculus (mouse) assessed as inhibition of acetic acid-induced writhing at 20 mg/kg, po measured after 25 min relative to control; type: functional
[31] = test system: Rattus norvegicus; assay: Anti-inflammatory activity in Rattus norvegicus (rat) assessed as inhibition of carrageenan-induced paw edema at 20 mg/kg, po administered at 1 hr prior to carrageenan-challenge measured after 3 hr relative to control; type: functional
[32] = test system: Rattus norvegicus; assay: Anti-inflammatory activity in Rattus norvegicus (rat) assessed as inhibition of carrageenan-induced paw edema at 20 mg/kg, po administered at 1 hr prior to carrageenan-challenge measured after 2 hr relative to control; type: functional

In the case of CC(=O)Nc1ccc(OC(=O)c2ccccc2N(CCO[N+](=O)[O-])c2ccccc2)cc1, the Activity [1] is reported as “Non-toxic”, the inhibition in vivo at 14 mg/kg [2] is reported as 59.6% and the Activity [3] is reported as 10.71%. The inhibition in vivo at 14 mg/kg [4] was 15.4%, the inhibition in vivo at 14 mg/kg [5] was 65.8% and the inhibition in vivo at 14 mg/kg [6] was 55.2%. The inhibition in vivo at 14 mg/kg [7] was 26.7% and the Activity [8] was “Non-toxic”.

With CC(=O)Nc1ccc(OC(=O)c2ccccc2N(CCO[N+](=O)[O-])c2ccc([N+](=O)[O-])cc2)cc1 the Activity [3] was 6.98%, the Activity [9] was “Non-toxic” and the inhibition in vivo at 13 mg/kg [10] was 23.3%. The inhibition in vivo at 13 mg/kg [11] was 13.8%, the Activity [12] was “Non-toxic” and the inhibition in vivo at 13 mg/kg [13] was 11.9%. It also gave an inhibition in vivo at 13 mg/kg [14] of 32.1% and an inhibition in vivo at 13 mg/kg [15] of 6.67%.

With CC(=O)Nc1ccc(OC(=O)c2ccccc2N(CCO[N+](=O)[O-])c2ccc(C)cc2)cc1 the Activity [1] was “Non-toxic”, the inhibition in vivo at 14 mg/kg [2] was 36.8% and the Activity [3] was 7.31%. The inhibition in vivo at 14 mg/kg [4] was 21.8%, the inhibition in vivo at 14 mg/kg [5] was 24.4% and the inhibition in vivo at 14 mg/kg [6] was 18%. The inhibition in vivo at 14 mg/kg [7] was 30% and the Activity [8] was “Non-toxic”.

With CC(=O)Nc1ccc(OC(=O)c2ccc(N(CCO[N+](=O)[O-])c3ccccc3C(=O)Oc3ccc(NC(C)=O)cc3)cc2)cc1 the Activity [3] was 2.46%, the Activity [16] was “Non-toxic” and the inhibition in vivo at 10 mg/kg [17] was 11.7%. The inhibition in vivo at 10 mg/kg [18] was 12.1%, the inhibition in vivo at 10 mg/kg [19] was 18.7% and the inhibition in vivo at 10 mg/kg [20] was 13.7%. The inhibition in vivo at 10 mg/kg [21] was 11.2%.

With CC(=O)Nc1ccc(OC(=O)c2ccccc2N(CCO[N+](=O)[O-])c2ccc(S(N)(=O)=O)cc2)cc1 the Activity [3] was 5.88%, the inhibition in vivo at 12 mg/kg [22] was 8.33% and the Activity [23] was “Non-toxic”. For the same compound, the inhibition in vivo at 12 mg/kg [24] was 26.2%, the inhibition in vivo at 12 mg/kg [25] was 11.5% and the inhibition in vivo at 12 mg/kg [26] was 9.41%. The inhibition in vivo at 12 mg/kg [27] was 8.46%.

With O=C(O)Cc1ccccc1Nc1c(Cl)cccc1Cl [DICLOFENAC SODIUM] the inhibition in vivo at 20 mg/kg [28] was 73.4%, the inhibition in vivo at 20 mg/kg [29] was 45% and the inhibition in vivo at 20 mg/kg [30] was 8.2%. It also gave an inhibition in vivo at 20 mg/kg [31] of 73.3% and an inhibition in vivo at 20 mg/kg [32] of 42.1%.
